Source: patent US20210246455A1, “MULTIPLEX ASSAY” (priority 2017, published 2021)
Entries after “also recorded” stand apart in the source; their conditions may differ. Where two headings read alike, the source gives them in different places.

What was measured:
[1] = test system: 53BP1 foci in Tox^DUPR reporter cells pooled with Tox^ORG reporter cells; test: Pooled assay, U2OS^A Tox^ORG and Tox^DUPR reporter cells mixed 1:1, 53BP1 foci per nuclei; format: cell-based, human
Method: U2OS^A:Tox^DUPR and U2OS^A:Tox^ORG were combined in a pooled assay with an aggregate of […] biosensors and phenotypic readouts (MTS-Venus, H2B-TagBFP, mCherry-LC3, 53BP1-cerulean, XBP1-Venus and H2B-mCherry) where DNA is differently labeled in each of the two reporter cell lines (FIG. 13).
The two U2OS^A Tox^ORG and Tox^DUPR reporter cell lines were mixed 1:1 and plated in 384 well plates 24 h before compound addition. […] NCS inhibits DNA synthesis, G2 cycle arrest, apoptosis. Both compounds are inducers of DNA double strand breaks and consequently increase the number of 53BP1 nuclear foci. Eight hours post compound addition, images were acquired in a Nikon Ti-E inverted Microscope equipped with motorized stage with autofocus and OkoLab stage top environmental control chamber (supplied with CO2 and temperature controlled for live cell imaging) (FIG. 14).

[2] = test system: 53BP1 foci (DNA double strand breaks) in U2OS^A:Tox^DUPR reporter cells; test: 53BP1-mCerulean foci per nuclei in U2OS^A:Tox^DUPR reporter cells; format: cell-based, human; conditions: for number of 53BP1 foci per nuclei: exposed for 8 hr, compared to DMSO/vehicle
Method: U2OS acceptor cells were co-transfected a construct containing the recombinase B×b1 and a mutlicistronic Tox reporter (named U2OS^A:Tox^DUPR) carrying three fluorescently labeled proteins: 53BP1-mCerulean that binds to DNA double strand breaks, H2B-mCherry and XBP1Δ-Venus which is a UPR stress related sensor. […] NCS inhibits DNA synthesis, G2 cycle arrest, apoptosis. […] Cells were plated in glass bottom well 384 well plates. To evaluate the specificity of the reporter, together with DNA inducers, three other compounds were used as controls. Thapsigargin, which induced UPR-related stress by inhibiting calcium uptake into ER (Ca^2+ is chaperone cofactor so protein folding is inhibited), tunicamycin that is also involved in UPR-related stress by inhibiting glycosylation of newly synthesized proteins, and aphidicolin which inhibits DNA replication in eukaryotes. All compounds were tested in tetraplicates in four ten-fold serial dilutions with data collection 8 hour after compound addition. Images were acquired in a Nikon Ti-E inverted Microscope equipped with motorized stage with autofocus and OkoLab stage top environmental control chamber (supplied with CO2 and temperature controlled for live cell imaging) (FIG. 11A).
The number of 53BP1-mCerulean was used as a metric for double strand breaks and DNA damage. For each assay, the images were analyzed using the open source software CellProfiler for quantification of the number of foci per nuclei and the data generated was further processed to determine compound EC50S.
Image analysis was conducted using the open source software CellProfiler. After importing the images, nuclei were identified from the H2B-mCherry images as primary objects, followed by enhancement of mCerulean structures, and detection of these enhanced structures as objects. The nuclei and the foci are related and the number of children (foci) per nuclei is counted. Data from CellProfiler was exported to Python programming language for further computation.
Using Python, the data was grouped by well and the average number of foci/nuclei determined. The wells that corresponded to the same conditions were grouped. All the data was exported to GraphPad Prism 7.0 software to generate plots. A non-linear regression was used to fit the data and to calculate the concentration where we observe 50% activity of the enhancer (EC50S) (FIG. 11B)

[3] = test system: MAPK pathway activation (mCherry-Erk nuclear localization) in U2OS MAPK R20 cells expressing K-Ras(G12C); test: MAPK reporter assay, nuclear versus cytoplasmic mCherry-Erk, U2OS MAPK R20; format: cell-based; conditions: Homo sapiens, read-out: IC50 (inhibition of nuclear localization of mCherry-Erk)
Method: (§1) Three MAPK reporter cell lines were used to visualize the MAPK pathway in live cells and to analyze dose responses of MAPK inhibitors. U2OS MAPK R19, R20 and R21 multicolor stable cell line expressing mCerulean-CRaf, untagged Mek, mCherry-Erk and Venus-KRas (wt, G12C and G12D, respectively) were plated in glass bottom well 96 well plates. Twenty-four hours after plating cells were treated with doxycycline at 1 μg/ml for 5 h to induce fluorescent reporter expression. Monitoring of cells under the microscope allowed visualization of the response to Ras-MAPK pathway inhibitors. Two inhibitors, Trametinib an inhibitor of Mekl and […], inhibitor of Mek1/2 were used in the assay. […]
(§2) For each assay, the images were analyzed using CellProfiler (open source software for image analysis, Kamensty, L. et al., Bioinformatics (2011)) for quantification of the ratio of nuclear versus cytoplasmic Erk fluorescence intensity and the data generated was further processed to determine compound IC50S.
(§3) Image analysis used the open source software CellProfiler. […] The nuclear area of each cell was subtracted from the cytoplasm area to give the final cytoplasm mask. mCherry intensity for the nucleus and the cytoplasm of each cell was calculated from the original mCherry-Erk image and the nuclear to cytoplasm ratio of mCherry intensity was calculated per cell and exported as a HDFS file for analysis. […]

[4] = test system: MAPK pathway activation (mCherry-Erk nuclear localization) in U2OS MAPK R21 cells expressing K-Ras(G12D); test: MAPK reporter assay, nuclear versus cytoplasmic mCherry-Erk, U2OS MAPK R21; format: cell-based; conditions: Homo sapiens, read-out: IC50 (inhibition of nuclear localization of mCherry-Erk)
Method: as §1, §2, §3

[5] = test system: MAPK pathway activation (mCherry-Erk nuclear localization) in U2OS MAPK R19 cells expressing K-Ras(wt); test: MAPK reporter assay, nuclear versus cytoplasmic mCherry-Erk, U2OS MAPK R19; format: cell-based; conditions: Homo sapiens, read-out: IC50 (inhibition of nuclear localization of mCherry-Erk)
Method: as §1, §2, §3

[6] = test system: Ras-MAPK pathway in HEK293 multicolor stable cell line expressing KRas(G12C), C-Raf, Mek and Erk reporters; test: Live-cell imaging of 4-color MAPK reporter cell line (reporter localization); format: cell-based, human; conditions: for CRaf localization / Erk localization / KRas localization: treated for four or nine hours, relative to control
Method: The two-color stable cell lines were plated in 96 well glass-bottom plates overnight and treated with doxycycline at 1 μg/m1 to induce fluorescent reporter expression. Cells were treated with different compounds for four or nine hours. Cells were imaged with an epifluorescence Nikon™microscope with an OKOLab™ incubator system and images were acquired using a Plan Fluor™40× objective and NIS-Elements® software (Nikon™). An analogous procedure, using N-terminal tagged KRas(G12C), CRaf, Mek and Erk cloned into the multicistronic construct, was used to generate monoclonal, inducible 4-color cell lines with approximately balanced reporter construct expression level (FIG. 4 and FIG. 5, control)
The 4-color lines were used to visualize the MAPK pathway in live cells. HEK293 multicolor stable cell line expressing KRas(G12C), C-Raf, Mek and Erk reporters show correct localization of the 4 proteins at the plasma membrane, plasma membrane and cytoplasm, cytoplasm, nucleus, respectively (FIG. 5). Monitoring of cells under the microscope allowed visualization of the response to Ras-MAPK pathway inhibitors. To monitor response to inhibitors, after protein induction cell were treated with: GDC-0879, FR180204, lovastatin and PD0325901 for four or nine hours.

[7] = test system: MAPK signaling in cells expressing K-Ras(wt), K-Ras(G12C) and K-Ras(G12D); test: Imaging of mCherry-Erk localization in U2OS^A-Tet MAPK R19, R20 and R21 reporter cell lines; format: cell-based, human; conditions: exposed for 1 hr, compared to DMSO treated cells
Method: MAPK pathway inhibitors were tested for their ability to inhibit nuclear localization of mCherry-tagged ERK in three different cell lines expressing K-Ras wild type, K-Ras G12C or K-Ras G12D. To quantify these images we calculated the ratio of nuclear to cytoplasmic ERK in single cells for four images per sample and plotted the resulting values as a histogram.
as §1, §2

With neocarzinostatin [NCS] the “number of 53BP1 foci per nuclei” value ([1]; pooled Tox^ORG and Tox^DUPR cells, 8 hr, compared to vehicle) was “increase in the number of foci/nuclei specifically in Tox^DUPR reporter cells; also recorded: increase in the number of foci per nuclei”, the “EC50 (number of 53BP1 foci/nuclei)” value ([1]; pooled with other reporter cell lines (FIG. 14), eight hours post compound addition) was 376 µg/mL and the “EC50 (number of 53BP1 foci/nuclei)” value ([2]; 8 hour after compound addition) was 0.257 µg/mL. The “number of 53BP1 foci per nuclei” value [2] was “increase in the number of foci per nuclei” and the “EC50 (number of 53BP1 foci/nuclei)” value ([2]; reporter cells assayed by itself (FIG. 11B)) was 257 µg/mL.

`COc1cc([C@@H]2c3cc4c(cc3[C@@H](O[C@@H]3O[C@@H]5CO[C@@H](C)O[C@H]5[C@H](O)[C@H]3O)[C@H]3COC(=O)[C@H]23)OCO4)cc(OC)c1O` [Etoposide] was tested, and the EC50 ([2]; Homo sapiens, 8 hour after compound addition, read-out: EC50 (number of 53BP1 foci/nuclei)) was 161 nM.

With `C/C=C(/C)C(=O)O[C@H]1C(C)=C2[C@H]([C@@H]1OC(=O)CCCCCCC)[C@@](C)(OC(C)=O)C[C@H](OC(=O)CCC)[C@@]1(O)[C@H]2OC(=O)[C@@]1(C)O` [thapsigargin, Thapsigargin] the “number of 53BP1 foci per nuclei” value [2] was “do not show any effect in the number of 53BP1 foci”.

`CC(=O)Nc1cccc(-n2c(=O)n(C3CC3)c(=O)c3c(Nc4ccc(I)cc4F)n(C)c(=O)c(C)c32)c1` [Trametinib] showed an IC50 ([3]; cells expressing K-Ras(G12C), 1 hour after compound addition) of 55 nM, an IC50 ([4]; cells expressing K-Ras(G12D), 1 hour after compound addition) of 28 nM and an IC50 ([5]; cells expressing K-Ras(wt), 1 hour after compound addition) of 9 nM.

With tunicamycin the “number of 53BP1 foci per nuclei” value [2] was “do not show any effect in the number of 53BP1 foci”.

In the case of `O=C(NOC[C@H](O)CO)c1ccc(F)c(F)c1Nc1ccc(I)cc1F` [PD 0329501], the CRaf localization [6] is reported as “none of Mek upstream proteins (KRas and C-Raf) showed alteration in localization”, the Erk localization [6] is reported as “redistribution of the downstream effector, Erk, from the nucleus to the cytoplasm” and the KRas localization [6] is reported as “none of Mek upstream proteins (KRas and C-Raf) showed alteration in localization”. The IC50 ([3]; 1 h) was 13 nM, the IC50 ([4]; 1 h) was 76 nM and the mCherry-Erk localization [7] was “increase of mCherry-Erk at the cytoplasm”. For the same molecule, the IC50 ([5]; 1 h) was 9 nM.

With `Nc1[nH]nc2nnc(-c3c(-c4ccccc4)nn4ccccc34)cc12` [FR180204] the CRaf localization [6] was “moderate increase of CRaf levels at the plasma membrane”.

For `CC[C@H](C)C(=O)O[C@H]1C[C@@H](C)C=C2C=C[C@H](C)[C@H](CC[C@@H]3C[C@@H](O)CC(=O)O3)[C@H]21` [Lovastatin], the “displacement of KRas from the cell membrane” value ([6]; ***p<0.0001) was “significant displacement of KRas from the cell membrane”, the CRaf localization [6] was “C-Raf is not enriched at the membrane” and the Erk localization [6] was “changes its localization to the cytoplasm”. For the same molecule, the KRas localization [6] was “absence of KRas at the membrane”.

With `C[C@@]1(CO)[C@H](O)CC[C@@]2(C)[C@H]1CC[C@H]1C[C@@H]3C[C@@]12CC[C@]3(O)CO` [aphidicolin] the “number of 53BP1 foci per nuclei” value [2] was “do not show any effect in the number of 53BP1 foci”.
